Legend:
[1] = DRUGMATRIX: Glutamate, Kainate radioligand binding (ligand: [3H] Kainic acid); type: cell membranes, Rattus norvegicus, Wistar, Brain, Membrane; conditions: Not Active = under 50% inhibition at 10 µM
[2] = biological target: Sigma non-opioid intracellular receptor 1 (Homo sapiens, UniProt Q99720); assay: DRUGMATRIX: Sigma1 radioligand binding (ligand: [3H] Haloperidol); type: cell membranes, Jurkat, Membrane; conditions: jurkat; Not Active = under 50% inhibition at 10 µM
[3] = DRUGMATRIX: Phorbol Ester radioligand binding (ligand: [3H] PDBu); type: cell membranes, Mus musculus, ICR, Brain, Membrane; conditions: Not Active = under 50% inhibition at 10 µM
[4] = biological target: Matrix metalloproteinase-9 (Homo sapiens, UniProt P14780); type: cell-based;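 also: inhibition of isolated MMP-9 enzyme activity toward a synthetic peptide substrate, from the DrugMatrix protease screening panel; in other assays of this panel Not Active means under 50% inhibition at 10 µM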
Sequence of Matrix metalloproteinase-9 (P14780 whole entry): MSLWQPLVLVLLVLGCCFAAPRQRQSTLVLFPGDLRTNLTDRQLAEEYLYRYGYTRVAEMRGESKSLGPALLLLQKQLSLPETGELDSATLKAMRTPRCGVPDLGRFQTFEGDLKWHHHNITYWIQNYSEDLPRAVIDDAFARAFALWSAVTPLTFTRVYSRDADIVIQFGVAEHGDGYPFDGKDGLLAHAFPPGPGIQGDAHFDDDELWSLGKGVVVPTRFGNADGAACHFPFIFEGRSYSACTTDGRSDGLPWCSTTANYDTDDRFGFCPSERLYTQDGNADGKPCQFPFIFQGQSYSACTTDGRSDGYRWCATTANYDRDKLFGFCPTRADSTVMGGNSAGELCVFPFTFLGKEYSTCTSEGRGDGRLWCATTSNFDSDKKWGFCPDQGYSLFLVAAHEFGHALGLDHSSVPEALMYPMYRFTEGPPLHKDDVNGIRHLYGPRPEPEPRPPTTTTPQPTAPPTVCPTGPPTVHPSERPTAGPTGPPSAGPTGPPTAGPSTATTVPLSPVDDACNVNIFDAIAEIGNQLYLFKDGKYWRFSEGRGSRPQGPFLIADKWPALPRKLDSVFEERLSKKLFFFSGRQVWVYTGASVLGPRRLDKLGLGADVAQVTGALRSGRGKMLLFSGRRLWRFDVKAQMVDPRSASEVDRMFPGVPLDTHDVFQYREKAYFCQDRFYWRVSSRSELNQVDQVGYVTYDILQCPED

[5] = DRUGMATRIX: Sigma2 radioligand binding (ligand: [3H] Ifenprodil); type: cell membranes, Rattus norvegicus, Wistar, Brain, Membrane; conditions: Not Active = under 50% inhibition at 10 µM
Leukotriene C4 synthase = biological target: T1, Leukotriene C4 synthase (Cavia porcellus, UniProt A6XA80); assay: biochemical; type: tissue-based, Lung;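 also: enzyme inhibition assay of leukotriene C4 synthase, using LTA4 as the substrate; in other assays of this panel Not Active means under 50% inhibition at 10 µM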
T1 sequence (A6XA80 whole entry): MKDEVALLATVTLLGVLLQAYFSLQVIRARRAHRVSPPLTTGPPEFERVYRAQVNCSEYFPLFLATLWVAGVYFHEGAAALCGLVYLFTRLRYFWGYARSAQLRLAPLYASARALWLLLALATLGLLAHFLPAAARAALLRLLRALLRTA

[6] = biological target: T2, Polyunsaturated fatty acid lipoxygenase ALOX15 (Oryctolagus cuniculus, UniProt P12530); assay: biochemical; type: tissue-based, Reticulocytes; conditions: reticulocytes;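 also: inhibition of 15-lipoxygenase enzyme activity measured with linoleic acid as the substrate; in other assays of this panel Not Active means under 50% inhibition at 10 µM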
T2 sequence (P12530 whole entry): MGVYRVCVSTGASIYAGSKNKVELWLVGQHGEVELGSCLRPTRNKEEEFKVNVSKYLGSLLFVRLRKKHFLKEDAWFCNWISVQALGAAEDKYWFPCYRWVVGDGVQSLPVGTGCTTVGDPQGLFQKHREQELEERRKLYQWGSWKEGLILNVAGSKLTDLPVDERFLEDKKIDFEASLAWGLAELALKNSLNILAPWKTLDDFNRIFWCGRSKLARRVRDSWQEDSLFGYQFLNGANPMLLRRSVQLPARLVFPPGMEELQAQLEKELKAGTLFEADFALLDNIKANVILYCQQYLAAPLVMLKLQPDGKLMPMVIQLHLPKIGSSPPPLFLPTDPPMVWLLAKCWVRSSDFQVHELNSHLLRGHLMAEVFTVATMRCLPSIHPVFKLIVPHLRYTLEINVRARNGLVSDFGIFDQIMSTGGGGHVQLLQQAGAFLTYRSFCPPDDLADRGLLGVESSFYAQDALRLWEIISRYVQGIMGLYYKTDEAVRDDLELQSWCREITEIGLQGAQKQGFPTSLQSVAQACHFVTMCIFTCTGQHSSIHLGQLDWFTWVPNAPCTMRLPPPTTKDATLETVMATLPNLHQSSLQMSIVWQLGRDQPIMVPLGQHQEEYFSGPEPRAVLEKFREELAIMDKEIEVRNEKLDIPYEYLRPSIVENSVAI

[7] = DRUGMATRIX: GABAA, Flunitrazepam, Central radioligand binding (ligand: [3H] Flunitrazepam); type: cell membranes, Rattus norvegicus, Wistar, Brain, Membrane; conditions: Not Active = under 50% inhibition at 10 µM
Estrogen receptor = biological target: T3, Estrogen receptor (Homo sapiens, UniProt P03372); conditions: sf9; also: in other assays of this panel Not Active means under 50% inhibition at 10 µM
T3 sequence (P03372 whole entry): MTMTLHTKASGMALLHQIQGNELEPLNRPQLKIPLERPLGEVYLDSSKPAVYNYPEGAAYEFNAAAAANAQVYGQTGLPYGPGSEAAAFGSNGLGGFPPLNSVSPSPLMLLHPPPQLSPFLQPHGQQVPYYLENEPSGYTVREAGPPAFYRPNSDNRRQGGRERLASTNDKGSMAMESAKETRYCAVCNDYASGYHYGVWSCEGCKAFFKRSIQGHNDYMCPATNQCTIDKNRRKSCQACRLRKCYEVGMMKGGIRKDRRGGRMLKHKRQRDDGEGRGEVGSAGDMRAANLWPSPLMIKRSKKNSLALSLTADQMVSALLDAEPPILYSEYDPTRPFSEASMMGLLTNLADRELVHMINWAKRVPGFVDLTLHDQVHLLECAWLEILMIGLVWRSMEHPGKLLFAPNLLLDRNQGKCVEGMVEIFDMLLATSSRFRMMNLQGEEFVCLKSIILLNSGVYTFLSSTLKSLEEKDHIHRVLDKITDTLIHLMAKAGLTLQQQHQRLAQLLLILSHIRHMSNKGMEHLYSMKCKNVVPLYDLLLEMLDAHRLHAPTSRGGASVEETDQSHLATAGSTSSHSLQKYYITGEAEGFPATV

Cytochrome P450 2A6 = biological target: T4, Cytochrome P450 2A6 (Homo sapiens, UniProt P11509); conditions: bti-tn-5b1-4; also: in other assays of this panel Not Active means under 50% inhibition at 10 µM
T4 sequence (P11509 whole entry): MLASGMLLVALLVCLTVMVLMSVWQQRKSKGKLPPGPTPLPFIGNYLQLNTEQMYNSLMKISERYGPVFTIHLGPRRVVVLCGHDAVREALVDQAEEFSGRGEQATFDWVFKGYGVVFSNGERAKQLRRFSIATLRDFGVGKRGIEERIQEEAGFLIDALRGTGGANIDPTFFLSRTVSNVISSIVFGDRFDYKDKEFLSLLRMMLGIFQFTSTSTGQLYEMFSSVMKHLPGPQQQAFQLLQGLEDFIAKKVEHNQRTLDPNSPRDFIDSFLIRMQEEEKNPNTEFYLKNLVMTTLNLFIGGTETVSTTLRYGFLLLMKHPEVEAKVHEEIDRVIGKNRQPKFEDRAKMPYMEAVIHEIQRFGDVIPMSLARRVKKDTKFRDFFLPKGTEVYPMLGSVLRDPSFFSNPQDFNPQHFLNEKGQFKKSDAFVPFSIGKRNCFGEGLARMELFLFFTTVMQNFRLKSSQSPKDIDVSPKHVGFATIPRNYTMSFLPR

[8] = biological target: Protein phosphatase 3 catalytic subunit alpha (Homo sapiens, UniProt Q08209); design: species or system Escherichia coli
Substance-P receptor = Substance-P receptor (Homo sapiens, UniProt P25103); type: cell membranes, CHO, Membrane; conditions: cho; also: in other assays of this panel Not Active means under 50% inhibition at 10 µM
Sequence of Substance-P receptor (P25103 whole entry): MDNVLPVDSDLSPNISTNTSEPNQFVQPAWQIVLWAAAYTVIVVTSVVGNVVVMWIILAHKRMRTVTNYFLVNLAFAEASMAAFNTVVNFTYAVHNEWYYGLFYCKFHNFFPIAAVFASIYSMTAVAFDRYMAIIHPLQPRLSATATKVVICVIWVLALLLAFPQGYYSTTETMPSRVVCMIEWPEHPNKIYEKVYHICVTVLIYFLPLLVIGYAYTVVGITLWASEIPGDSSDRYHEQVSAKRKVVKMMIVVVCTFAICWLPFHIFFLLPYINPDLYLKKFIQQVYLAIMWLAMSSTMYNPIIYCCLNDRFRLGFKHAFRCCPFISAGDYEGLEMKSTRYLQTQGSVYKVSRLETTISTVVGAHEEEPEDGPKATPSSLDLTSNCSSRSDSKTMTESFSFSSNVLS

[9] = biological target: 5-hydroxytryptamine receptor 1B (Rattus norvegicus, UniProt P28564); type: cell membranes, Wistar, Cerebral cortex, Membrane; also: in other assays of this panel Not Active means under 50% inhibition at 10 µM
Sequence of 5-hydroxytryptamine receptor 1B (P28564 whole entry): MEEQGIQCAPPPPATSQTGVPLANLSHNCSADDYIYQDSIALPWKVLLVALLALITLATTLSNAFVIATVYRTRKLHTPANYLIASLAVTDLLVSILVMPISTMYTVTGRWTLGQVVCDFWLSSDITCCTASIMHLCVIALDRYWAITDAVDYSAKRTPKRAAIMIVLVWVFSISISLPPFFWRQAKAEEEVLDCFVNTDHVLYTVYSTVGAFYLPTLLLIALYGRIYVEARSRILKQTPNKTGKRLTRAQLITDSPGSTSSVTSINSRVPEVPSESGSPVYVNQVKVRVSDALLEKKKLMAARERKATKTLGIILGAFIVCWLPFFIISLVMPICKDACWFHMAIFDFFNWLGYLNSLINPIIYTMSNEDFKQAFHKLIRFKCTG

[10] = biological target: cGMP-specific 3',5'-cyclic phosphodiesterase (Homo sapiens, UniProt O76074); assay: DRUGMATRIX: Phosphodiesterase PDE5 enzyme inhibition (substrate: [3H]cGMP + cGMP); type: tissue-based, Platelet; conditions: platelet; Not Active = under 50% inhibition at 10 µM
[11] = biological target: Platelet-activating factor receptor (Homo sapiens, UniProt P25105); assay: biochemical; type: tissue-based; conditions: platelet; also: in other assays of this panel Not Active means under 50% inhibition at 10 µM
Sequence of Platelet-activating factor receptor (P25105 whole entry): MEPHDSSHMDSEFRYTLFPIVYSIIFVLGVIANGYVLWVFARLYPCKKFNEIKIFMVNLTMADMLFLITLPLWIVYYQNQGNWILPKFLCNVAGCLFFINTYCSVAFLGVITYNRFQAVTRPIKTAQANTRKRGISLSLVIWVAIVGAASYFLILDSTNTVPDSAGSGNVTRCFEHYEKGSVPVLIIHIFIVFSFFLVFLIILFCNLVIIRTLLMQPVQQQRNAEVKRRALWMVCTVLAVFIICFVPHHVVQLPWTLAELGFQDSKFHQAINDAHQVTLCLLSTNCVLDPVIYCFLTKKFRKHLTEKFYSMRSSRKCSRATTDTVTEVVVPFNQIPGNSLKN

Sequence of Sigma non-opioid intracellular receptor 1 (Q99720 whole entry): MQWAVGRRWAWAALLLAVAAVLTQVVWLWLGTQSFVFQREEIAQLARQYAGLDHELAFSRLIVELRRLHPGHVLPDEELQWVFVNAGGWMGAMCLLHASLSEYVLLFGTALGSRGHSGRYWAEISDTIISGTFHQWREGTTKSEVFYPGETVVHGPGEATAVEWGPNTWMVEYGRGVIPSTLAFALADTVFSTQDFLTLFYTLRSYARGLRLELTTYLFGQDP

Oc1c(Cl)cc(Cl)cc1Sc1cc(Cl)cc(Cl)c1O [BITHIONOL]
IC50 [1]: Not Active | Ki [1]: Not Active | IC50 [2]: Not Active | IC50 [3]: Not Active | Ki [3]: Not Active | IC50 [4]: Not Active | IC50 [5]: Not Active | Ki [5]: Not Active | IC50 (Leukotriene C4 synthase): Not Active | IC50 [6]: Not Active | IC50 [7]: Not Active | Ki [7]: Not Active | IC50 (Estrogen receptor): Not Active | IC50 (Cytochrome P450 2A6): Not Active | Ki (Cytochrome P450 2A6): Not Active | IC50 [8]: Not Active | IC50 (Substance-P receptor): Not Active | IC50 [9]: Not Active | IC50 [10]: Not Active | IC50 [11]: Not Active

COC1=CC(=O)C[C@@H](C)[C@]12Oc1c(Cl)c(OC)cc(OC)c1C2=O [GRISEOFULVIN]
IC50 [1]: Not Active | Ki [1]: Not Active | IC50 [2]: Not Active | IC50 [3]: Not Active | Ki [3]: Not Active | IC50 [4]: Not Active | IC50 [5]: Not Active | Ki [5]: Not Active | IC50 (Leukotriene C4 synthase): Not Active | IC50 [6]: Not Active | IC50 [7]: Not Active | Ki [7]: Not Active | IC50 (Estrogen receptor): Not Active | IC50 (Cytochrome P450 2A6): Not Active | Ki (Cytochrome P450 2A6): Not Active | IC50 [8]: Not Active | IC50 (Substance-P receptor): Not Active | IC50 [9]: Not Active | IC50 [10]: Not Active | IC50 [11]: Not Active

CN1C[C@H](C(=O)N[C@]2(C)O[C@@]3(O)[C@@H]4CCCN4C(=O)[C@H](Cc4ccccc4)N3C2=O)C=C2c3cccc4[nH]cc(c34)C[C@H]21 [ERGOTAMINE]
IC50 [1]: Not Active | Ki [1]: Not Active | IC50 [2]: Not Active | IC50 [3]: Not Active | Ki [3]: Not Active | IC50 [4]: Not Active | IC50 [5]: Not Active | Ki [5]: Not Active | IC50 (Leukotriene C4 synthase): Not Active | IC50 [6]: Not Active | IC50 [7]: Not Active | Ki [7]: Not Active | IC50 (Estrogen receptor): Not Active | IC50 (Cytochrome P450 2A6): Not Active | Ki (Cytochrome P450 2A6): Not Active | IC50 [8]: Not Active | IC50 (Substance-P receptor): Not Active | IC50 ([9]; read-out: IC50): 0.201 nM | Ki ([9]; read-out: Ki): 0.091 nM | IC50 [10]: Not Active | IC50 [11]: Not Active

CCCc1cc(=O)[nH]c(=S)[nH]1 [PROPYLTHIOURACIL]
IC50 [1]: Not Active | Ki [1]: Not Active | IC50 [2]: Not Active | IC50 [3]: Not Active | Ki [3]: Not Active | IC50 [4]: Not Active | IC50 [5]: Not Active | Ki [5]: Not Active | IC50 (Leukotriene C4 synthase): Not Active | IC50 [6]: Not Active | IC50 [7]: Not Active | Ki [7]: Not Active | IC50 (Estrogen receptor): Not Active | IC50 (Cytochrome P450 2A6): Not Active | Ki (Cytochrome P450 2A6): Not Active | IC50 [8]: Not Active | IC50 (Substance-P receptor): Not Active | IC50 [9]: Not Active | IC50 [10]: Not Active | IC50 [11]: Not Active

Nc1nc2c(ncn2COC(CO)CO)c(=O)[nH]1 [GANCICLOVIR]
IC50 [1]: Not Active | Ki [1]: Not Active | IC50 [2]: Not Active | IC50 [3]: Not Active | Ki [3]: Not Active | IC50 [4]: Not Active | IC50 [5]: Not Active | Ki [5]: Not Active | IC50 (Leukotriene C4 synthase): Not Active | IC50 [6]: Not Active | IC50 [7]: Not Active | Ki [7]: Not Active | IC50 (Estrogen receptor): Not Active | IC50 (Cytochrome P450 2A6): Not Active | Ki (Cytochrome P450 2A6): Not Active | IC50 [8]: Not Active | IC50 (Substance-P receptor): Not Active | IC50 [9]: Not Active | IC50 [10]: Not Active | IC50 [11]: Not Active

CNC(=O)Oc1ccc2c(c1)[C@]1(C)CCN(C)[C@@H]1N2C [PHYSOSTIGMINE]
IC50 [1]: Not Active | Ki [1]: Not Active | IC50 [2]: Not Active | IC50 [3]: Not Active | Ki [3]: Not Active | IC50 [4]: Not Active | IC50 [5]: Not Active | Ki [5]: Not Active | IC50 (Leukotriene C4 synthase): Not Active | IC50 [6]: Not Active | IC50 [7]: Not Active | Ki [7]: Not Active | IC50 (Estrogen receptor): Not Active | IC50 (Cytochrome P450 2A6): Not Active | Ki (Cytochrome P450 2A6): Not Active | IC50 [8]: Not Active | IC50 (Substance-P receptor): Not Active | IC50 [9]: Not Active | IC50 [10]: Not Active | IC50 [11]: Not Active

C=C1[C@@H]2CCC3[C@@](CC[C@@H]4[C@H](C(=O)O)C[C@@H](O[C@@H]5O[C@H](CO)[C@@H](OS(=O)(=O)[O-])[C@H](OS(=O)(=O)[O-])[C@H]5OC(=O)CC(C)C)C[C@@]34C)(C2)[C@@H]1O.[K+].[K+] (stereo partly specified) [ATRACTYLOSIDE]
IC50 [1]: Not Active | Ki [1]: Not Active | IC50 [2]: Not Active | IC50 [3]: Not Active | Ki [3]: Not Active | IC50 [4]: Not Active | IC50 [5]: Not Active | Ki [5]: Not Active | IC50 (Leukotriene C4 synthase): Not Active | IC50 [6]: Not Active | IC50 [7]: Not Active | Ki [7]: Not Active | IC50 (Estrogen receptor): Not Active | IC50 (Cytochrome P450 2A6): Not Active | Ki (Cytochrome P450 2A6): Not Active | IC50 [8]: Not Active | IC50 (Substance-P receptor): Not Active | IC50 [9]: Not Active | IC50 [10]: Not Active | IC50 [11]: Not Active
